What was measured:
Carbonic anhydrase 9 = Carbonic anhydrase 9 (Homo sapiens, UniProt Q16790); assay: Inhibition of recombinant human carbonic anhydrase 9 incubated for 6 hrs prior to testing measured for 10 to 100 secs by phenol red-based stopped-flow CO2 hydration assay
MCF7 = assay: Cytotoxicity against human MCF7 cells assessed as reduction in cell viability incubated for 48 hrs by MTT assay; type: functional, cell-based; conditions: MCF7, 48 h
A549 = assay: Cytotoxicity against human A549 cells assessed as reduction in cell viability incubated for 48 hrs by MTT assay; type: functional, cell-based; conditions: A549, 48 h
HeLa = assay: Cytotoxicity against human HeLa cells assessed as reduction in cell viability incubated for 48 hrs by MTT assay; type: functional, cell-based
Carbonic anhydrase 1 = Carbonic anhydrase 1 (Homo sapiens, UniProt P00915); assay: Inhibition of recombinant human carbonic anhydrase 1 incubated for 6 hrs prior to testing measured for 10 to 100 secs by phenol red-based stopped-flow CO2 hydration assay
Carbonic anhydrase 2 = Carbonic anhydrase 2 (Homo sapiens, UniProt P00918); assay: Inhibition of recombinant human carbonic anhydrase 2 incubated for 6 hrs prior to testing measured for 10 to 100 secs by phenol red-based stopped-flow CO2 hydration assay

Chain of Carbonic anhydrase 1 (P00915 whole entry): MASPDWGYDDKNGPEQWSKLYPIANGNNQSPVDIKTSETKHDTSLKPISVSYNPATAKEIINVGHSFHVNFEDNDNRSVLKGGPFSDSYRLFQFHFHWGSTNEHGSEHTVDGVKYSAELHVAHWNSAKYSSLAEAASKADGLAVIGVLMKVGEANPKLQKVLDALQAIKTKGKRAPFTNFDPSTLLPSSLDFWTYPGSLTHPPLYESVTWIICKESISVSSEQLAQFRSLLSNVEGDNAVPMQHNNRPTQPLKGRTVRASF

SMILES | Ki (Carbonic anhydrase 9) | IC50 (MCF7) | IC50 (A549) | IC50 (HeLa) | Ki (Carbonic anhydrase 1) | Ki (Carbonic anhydrase 2)
CC(C)(C)c1ccc(-c2cnc3c(c2)C=CS(=O)(=O)O3)cc1 | 0.0314 µM | > 500 µM | 149 µM | 171 µM |  | 
O=S1(=O)C=Cc2cc(-c3ccc(OC(F)(F)F)cc3)cnc2O1 | 0.2 µM |  |  |  | > 100 µM | > 100 µM
O=S1(=O)C=Cc2cccnc2O1 | 0.169 µM |  |  |  | 64.1 µM | 14 µM
COc1cccc(-c2cnc3c(c2)C=CS(=O)(=O)O3)c1 | 0.137 µM |  |  |  | > 100 µM | > 100 µM
COc1ccc(-c2cnc3c(c2)C=CS(=O)(=O)O3)cc1 | 0.0868 µM |  |  |  | > 100 µM | > 100 µM
O=S1(=O)C=Cc2cc(-c3cc(Cl)cc(Cl)c3)cnc2O1 | 0.0569 µM | 20 µM | 14 µM | 4.8 µM | > 100 µM | > 100 µM
O=S1(=O)C=Cc2cc(-c3ccccc3)cnc2O1 | 0.134 µM |  |  |  | > 100 µM | > 100 µM
O=S1(=O)C=Cc2cc(-c3ccc(-c4ccccc4)cc3)cnc2O1 | 0.21 µM |  |  |  | > 100 µM | > 100 µM
O=S1(=O)C=Cc2cc(-c3cccc4ccccc34)cnc2O1 | 0.221 µM |  |  |  |  | 
O=S1(=O)C=Cc2cc(-c3ccc(Cl)cc3)cnc2O1 | 0.0863 µM |  |  |  | > 100 µM | > 100 µM
O=S1(=O)C=Cc2cc(-c3ccc(C(F)(F)F)cc3)cnc2O1 | 0.0701 µM | 75 µM | 77 µM | 42 µM |  | 

Reference: ChEMBL document CHEMBL4680262, “Development of oxathiino[6,5-b]pyridine 2,2-dioxide derivatives as selective inhibitors of tumor-related carbonic anhydrases IX and XII” (Eur J Med Chem, 2020)
